These results are taken from patent publication US20230202997A1, “CHROMANOL, QUINONE OR HYDROQUINONE COMPOUNDS FOR TREATMENT OF SEPSIS” (Sulfateq B.V., priority 2020, published 2023).

Experiment [1] relates to IL-6 mRNA expression. Put plainly: Inhibition of LPS-induced IL-6 mRNA expression in HUVEC. The conditions noted are these: 10 μM for 30 min, then LPS 24 hours. Type of experiment: cell-based, Human. Here is the method:
(§1) Human Umbilical Cord Endothelial Cells (HUVEC, Lonza CC-2519) were maintained on 1% gelatin-coated culture flasks in RPMI1640 medium containing 20% fetal bovine serum, 2 mM Glutamine (Sigma-Aldrich), 1% Penicillin-Streptomycin solution (Sigma-Aldrich) and 50 μg/ml Bovine Pituitary Extract (Invitrogen). HUVEC were passaged by trypsinization when the cultures reach a confluency of 70%. For all experiments, HUVEC were seeded at 0.6·10^5 cells/cm^2 and allowed to adhere for 24 hours.
(§2) HUVEC and NRK52E cells were pre-incubated with SUL compounds (10 μM) for 30 min and subsequently exposed to LPS for 24 hours under standard culture conditions. Cells were lysed in triZOL reagens (Invitrogen) and total RNA isolated according to manufacturers' instruction. 1 μg total RNA per sample was reverse transcribed using the FirstAid Reverse Transcription Kit (ThermoFisher). Copy-DNA equivalents of 5 ng total RNA were amplified on a ViiA7 Real-time PCR system (ThermoFisher, Waltham, Mass.) using iTaq Universal SYBR Green Supermix (Bio-Rad, Hercules, Calif.) and primers specific for tumor necrosis factor alpha, interleukin 1 beta, interleukin-6 and beta actin as loading control. Amplification was performed for 40 cycles of 95° C. for 30 s, 60° C. for 1 min. Relative mRNA expression was calculated as 2^−(Cq^gene^−Cq^reference^) and normalized to unstimulated control cells (100% inhibition) and vehicle-treated and LPS exposed cells (0% inhibition). The following primers were used: […]

The test system of experiment [2] is cytoplasmic oxidative stress in HUVEC. The experiment is described as follows: LPS-induced cellular superoxide in HUVEC (DHE). Type of experiment: cell-based, Human. The note with it: 10 μM for 30 min, LPS 100 ng/ml 24 hours. As for the experimental part:
as §1
The production of cellular and mitochondrial oxidative stress was measured using fluorescent probes for cellular and mitochondrial superoxide, i.e. dihydroethidium (DHE) and MitoSox (ThermoFisher), respectively. HUVEC were incubated with BN-80933, SUL-138 or SUL-150 (all 10 μM) for 30 min. Next, HUVEC were exposed to LPS (100 ng/ml) for an additional 24 hours. In the final hour of incubation, 2.5 μM of DHE or MitoSox was applied to each sample. HUVEC were washed in PBS and fixed in 4% paraformaldehyde at room temperature for 15 min. Nuclear staining was performed by 5 μM […] (DAPI) and fluorescence intensity of the samples was recorded in a CLARIOStar Plus plate reader (BMG Labtech) equipped with the appropriate filter sets. Fluorescence recordings for DHE and MitoSox were corrected for DAPI fluorescence. All experiments were performed in quadruplicate.

Experiment [3] deals with TNFα mRNA expression. The experiment is described as follows: Endothelial inflammatory activation after endotoxin, TNFα mRNA (Example 5). The conditions noted are these: HUVEC; 10 μM for 30 min. Format: cell-based, Human. Here is the method: as §1
HUVEC cells were lysed in triZOL reagens (Invitrogen) and total RNA isolated according to manufacturers' instruction. 1 μg total RNA per sample was reverse transcribed using the FirstAid Reverse Transcription Kit (ThermoFisher). Copy-DNA equivalents of 5 ng total RNA were amplified on a ViiA7 Real-time PCR system (ThermoFisher, Waltham, Mass.) using iTaq Universal SYBR Green Supermix (Bio-Rad, Hercules, Calif.) and primers specific for tumor necrosis factor alpha (TNFα; sense 5′-[…]-3′, antisense 5′-[…]-3′), interleukin 1 beta (IL-1β; sense 5′-[…]-3′, antisense 5′-[…]-3′), interleukin-6 (IL-6; sense 5′-[…]-3′, antisense 5′-[…]-3′) and beta actin (ACTB; sense 5′-[…]-3′, antisense 5′-[…]-3′) as loading control. Amplification was performed for 40 cycles of 95° C. for 30 s, 60° C. for 1 min. Relative mRNA expression was calculated according to the δδCt-method.

For experiment [4], the system named is IL-1β mRNA expression. Put plainly: Inhibition of LPS-induced IL-1β mRNA expression in HUVEC. The conditions noted are these: 10 μM for 30 min, then LPS 24 hours. Format: cell-based, Human. Here is the method:
as §1, §2

Experiment [5] deals with IL-1β mRNA expression. Put plainly: Inhibition of LPS-induced IL-1β mRNA expression in NRK52E. Type of experiment: cell-based, Rat. The conditions noted are these: 10 μM for 30 min, then LPS 24 hours. As for the experimental part:
Rat kidney epithelial cells (ATCC #CRL-1571) were maintained in DMEM medium containing 10% fetal bovine serum, and 1% Penicillin-Streptomycin solution (Sigma-Aldrich). NRK52E cells were passaged by trypsinization when the cultures reached a confluency of 70%. For all experiments, NRK52E cells were seeded at 0.6·10^5 cells/cm^2 and allowed to adhere for 24 hours.
as §2

As for `Cc1c(C)c2c(c(C)c1O)CC[C@@](C)(C(=O)N1CCN(CCO)CC1)O2` [SUL-138, (S)-(6-hydroxy-2,5,7,8-tetramethylchroman-2-yl)(4-(2-hydroxyethyl)piperazin-1-yl)methanone], the “inhibition of LPS-induced mRNA expression of IL-6” value in experiment [1] was 68.3 ± 6.7 %. Also, the “LPS-induced cytoplasmic oxidative stress (DHE)” value in experiment [2] is recorded as “mitigates the induction of cytoplasmic oxidative stress”. Besides, the “LPS-induced mRNA expression of TNFα” value in experiment [3] is “precludes the induction of mRNA expression of the pro-inflammatory cytokine TNFα”. The “inhibition of LPS-induced mRNA expression of IL-1β” value in experiment [4] is recorded as 76.3 ± 7.9 %; in experiment [5], 65.2 ± 8.9 %.
